In patent publication US20090181090A1, “Protein-Based Carrier System for Overcoming Resistance in Tumour Cells” (priority 2005, published 2009):
≈ marks a conversion by molar mass, not a printed value. Read-outs that look alike come from different tables or passages of the source.

Legend:
UKF-NB3 Par. cells = assay: MTT cytotoxicity test, parental neuroblastoma cells; type: cell-based; conditions: Homo sapiens, UKF-NB-3, 120 h, 5 days incubation
UKF-NB3 Dxr-R. cells = assay: MTT cytotoxicity test, doxorubicin-resistant neuroblastoma cells; type: cell-based, human; conditions: 5 days incubation
Procedure: To test the cytotoxicity of the doxorubicin nanoparticles (Dxr-NP) produced, as compared to a doxorubicin solution (Dxr-Soln) and a liposomal doxorubicin preparation (CAELYX®), the following cell lines were used:
doxorubicin-resistant cells of the human neuroblastoma cell line of the Universitätsklinikum Frankfurt (UKF-NB3 Dxr-R.)
To determine the cytotoxicity, the MTT test was used. In this test the viability of the cells in the presence of different concentrations of a substance is determined and is then compared with a cell control. From the results, the IC50 value (inhibitory concentration 50), i.e. the concentration of a substance at which 50% of the cells die, can be calculated. […] After dissolving the crystals with SDS/DMF solution, the colour intensity can be measured photometrically. […]
One column of the wells contained pure medium and corresponded to the blank value; in a second column the cells for the growth control (100% value) were cultivated. […] After a further incubation at 37° C. overnight, the colour crystals had dissolved completely, and the colour intensity in each well was measured photometrically at […]. By subtracting the blank value from the measured values and with reference to the control, the cell viability can be expressed in percent.

Structure (SMILES): COc1cccc2c1C(=O)c1c(O)c3c(c(O)c1C2=O)C[C@@](O)(C(=O)CO)C[C@@H]3O[C@H]1C[C@H](N)[C@H](O)[C@H](C)O1 [Dxr-Soln, doxorubicin]
- IC50 (UKF-NB3 Par. cells): 0.0016 µg/mL (≈ 0.00294 µM)
- IC50 (UKF-NB3 Dxr-R. cells): 0.0535 µg/mL (≈ 0.0984 µM)
- IC50 (UKF-NB3 Dxr-R. cells; Homo sapiens, UKF-NB-3, 120 h, read-out: IC50): 0.0535 µg/mL (≈ 0.0984 µM)
